“Also recorded” adds a separate entry of the source.
Molecular target: T1, TLR 9 (Mus musculus, UniProt Q9EQU3)
T1 construct: RAW264.7 cells secrete TNF-α in response to the TLR9 agonist CpG; endogenous in cells; host or cells: RAW264.7 (ATCC)
T1 sequence (Q9EQU3 26-1032): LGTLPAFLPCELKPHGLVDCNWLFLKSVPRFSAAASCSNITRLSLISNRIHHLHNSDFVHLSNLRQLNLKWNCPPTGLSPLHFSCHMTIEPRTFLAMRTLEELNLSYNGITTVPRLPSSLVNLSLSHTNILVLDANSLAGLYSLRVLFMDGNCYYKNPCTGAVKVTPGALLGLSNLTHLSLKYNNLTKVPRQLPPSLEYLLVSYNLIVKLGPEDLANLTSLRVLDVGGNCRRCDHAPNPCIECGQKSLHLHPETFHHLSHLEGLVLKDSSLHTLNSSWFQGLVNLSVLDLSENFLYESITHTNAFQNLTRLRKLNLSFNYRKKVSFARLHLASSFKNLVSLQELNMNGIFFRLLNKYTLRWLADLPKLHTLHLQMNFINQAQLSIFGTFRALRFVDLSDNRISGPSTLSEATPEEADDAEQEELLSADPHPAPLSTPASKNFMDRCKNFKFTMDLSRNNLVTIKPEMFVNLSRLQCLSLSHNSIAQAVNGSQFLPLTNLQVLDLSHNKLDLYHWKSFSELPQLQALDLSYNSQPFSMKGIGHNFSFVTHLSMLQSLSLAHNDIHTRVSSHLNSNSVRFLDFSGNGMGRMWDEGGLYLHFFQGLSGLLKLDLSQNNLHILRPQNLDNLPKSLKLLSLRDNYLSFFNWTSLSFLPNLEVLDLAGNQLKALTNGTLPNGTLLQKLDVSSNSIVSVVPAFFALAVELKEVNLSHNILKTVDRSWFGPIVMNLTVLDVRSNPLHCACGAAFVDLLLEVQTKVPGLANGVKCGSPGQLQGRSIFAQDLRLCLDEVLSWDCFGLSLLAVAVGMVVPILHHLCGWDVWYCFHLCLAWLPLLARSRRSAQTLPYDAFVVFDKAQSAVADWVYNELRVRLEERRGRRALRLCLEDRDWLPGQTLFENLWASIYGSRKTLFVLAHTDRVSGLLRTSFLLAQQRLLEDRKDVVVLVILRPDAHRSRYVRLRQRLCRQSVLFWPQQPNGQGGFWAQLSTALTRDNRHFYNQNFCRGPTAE
Experiment: CpG-induced TNFα secretion by RAW264.7 cells (TLR 9 antagonism)
Type: cell-based
Conditions: for antagonism of TLR 9 activation (TNFα secretion): 5 μg/mL CpG, 100 μg/mL phospholipid, 5.5 hours; for TLR9 antagonist activity: reduction in cytokine secretion vs activating TLR ligand alone
Protocol: The mouse macrophage cell line, RAW264.7, was obtained from ATCC and maintained in DMEM, supplemented with 10% bovine growth serum and 1× penicillin streptomycin. Cells were maintained at 37° C. with 5% carbon dioxide: 95% air atmosphere within the incubator. Experiments were completed in a 96-well plate where cells were seated at a density of 1×10^5 cells per well, 24 prior to stimulation with TLR agonists and antagonists. Lipids were dried under a stream of nitrogen, hydrated with phosphate-buffered saline (PBS) at 37° C. for one hour, followed by water bath sonication to create liposomes. Each condition for cell stimulation and antagonism was prepared in DMEM in a separate tube and consisted of: control, TLR agonist, TLR agonist+lipid, and lipid alone. 100 μL aliquots of medium+agonists+antagonists were added to each well and incubated at 37° C. for 4 hours. Subsequently, the media were collected, diluted and an enzyme-linked immunosorbent assay (ELISA) was performed to quantify TNFα release by cells.
TLR 9 is another member of the intracellular TLRs found in the endosomal compartment. It detects unmethylated CpG sequences in DNA molecules commonly found among bacteria and DNA viruses (H. Hemmi, et al., “A Toll-like receptor recognizes bacterial DNA.,” Nature, vol. 408, no. 6813, pp. 740-5, December 2000; J. Lund, et al, “Toll-like receptor 9-mediated recognition of Herpes simplex virus-2 by plasmacytoid dendritic cells.,” J. Exp. Med., vol. 198, no. 3, pp. 513-20, August 2003). To test antagonism activity of PX lipids against TLR 9, RAW264.7 cells were stimulated for 5.5 hours with 5 μg/mL CpG in the absence or presence of 100 μg/mL phospholipid. […] The action of CpG is not affected by POPC, POPG, or many of the xylitol phospholipids, such as 14:0 DEPX, DSPX and 18:1 DEPX.

Row | Structure (SMILES) | antagonism of TLR 9 activation (TNFα secretion) | TLR9 antagonist activity
1 | CCCCCCCC/C=C\CCCCCCCC(=O)O[C@H](COC(=O)CCCCCCCCCCCCCCC)COP(=O)(O)OCC(O)CO (stereo partly drawn) [POPG, palmitoyl-oleoyl-phosphatidylglycerol, reference compound] | not affected | –
2 | CCCCCCCCCCCCCC(=O)OC[C@H](COP(=O)(O)OCC(O)C(O)C(O)CO)OC(=O)CCCCCCCCCCCCC (mixture of isomers) [DMPX, sn-1-myristoyl, sn-2-myristoyl sn-3 glycerol phosphoxylitol] | acts as an agonist for TLR9 activation | –
3 | CCCCCCCC/C=C\CCCCCCCC(=O)O[C@H](COC(=O)CCCCCCCCCCCCCCC)COP(=O)(O)OCC(O)C(O)C(O)CO (stereo partly drawn) [POPX, sn-1-palmitoyl, sn-2-oleoyly sn-3 glycerol phosphoxylitol] | reduce the TNF-α secretion to control levels; also recorded: inhibits; also recorded: effective against TLR 9 activation; also recorded: only effective antagonists of TLR 9 activation | + (cutoff being greater than a 50% reduction in cytokine secretion compared to activating TLR ligand alone)
4 | CCCCCCCCC=CCCCCCCCCOCC(COP(=O)(O)OCC(O)C(O)C(O)CO)OCCCCCCCCC=CCCCCCCCC (mixture of isomers) [18:1 DEPX, sn-1-O-octadecenyl, sn-2-O-octadecenyl sn-3 glycerol phosphoxylitol] | not affected | –
5 | CCCCCCCCCCCCCCCCCC(=O)OCC(COP(=O)(O)OCC(O)C(O)C(O)CO)OC(=O)CCCCCCCCCCCCCCCCC (stereo not drawn) [DSPX, sn-1-stearoyl, sn-2-stearoyl sn-3 glycerol phosphoxylitol] | not affected | –
6 | CCCCCCCC/C=C\CCCCCCCC(=O)O[C@H](COC(=O)CCCCCCCCCCCCCCC)COP(=O)([O-])OCC[N+](C)(C)C [POPC, 1-palmitoyl-2-oleoyl-sn-glycero-3-phosphocholine, reference compound] | not affected | –
7 | CCCCCCCCC=CCCCCCCCC(=O)OCC(COP(=O)(O)OCC(O)C(O)C(O)CO)OC(=O)CCCCCCCC=CCCCCCCCC (mixture of isomers) [DOPX, sn-1-oleoyl, sn-2-oleoyl sn-3 glycerol phosphoxylitol] | reduce the TNF-α secretion to control levels; also recorded: inhibits; also recorded: effective against TLR 9 activation; also recorded: only effective antagonists of TLR 9 activation | + (cutoff being greater than a 50% reduction in cytokine secretion compared to activating TLR ligand alone)
8 | CCCCCC=CCC=CCCCCCCCC(=O)OCC(COP(=O)(O)OCC(O)C(O)C(O)CO)OC(=O)CCCCCCCC=CCC=CCCCCC (mixture of isomers) [18:2 DLPX, sn-1-linoleoyl, sn-2-linoleoyl sn-3 glycerol phosphoxylitol] | effective against TLR 9 activation; also recorded: only effective antagonists of TLR 9 activation | + (cutoff being greater than a 50% reduction in cytokine secretion compared to activating TLR ligand alone)
9 | CCCCCCCCCCCCCCOC[C@H](COP(=O)(O)OCC(O)C(O)C(O)CO)OCCCCCCCCCCCCCC (mixture of isomers) [14:0 DEPX, sn-1-O-myristyl, sn-2-O-myristyl sn-3 glycerol phosphoxylitol] | not affected | –

From patent US12472193B2, “Methods and compositions for treating and preventing respiratory related diseases and conditions with xylitol-headgroup lipid analogs” (National Jewish Health, priority 2017, dated 2025)
